Experimental data published in patent US20240115557A1, “INHIBITORS OF RNA-GUIDED NUCLEASES AND USES THEREOF” (The Brigham and Women's Hospital, Inc., priority 2022, published 2024).

Tests used:
[1] = target: T1, SpCas9 (Streptococcus pyogenes serotype M1, UniProt Q99ZW2); experiment: Strand displacement assay (SDA) / cumulative activity assay (CAA), SpCas9 primary screen; assay type: biochemical; conditions: result in words
Procedure, shortened: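 SpCas9:gRNA RNP in 20 mM Tris-HCl pH 7.5, 100 mM KCl, 5 mM MgCl2 was used at 10 nM (2× stock) with Alexa Fluor 647-labelled substrate and excess quencher strand (1 nM and 5 nM, 2× stocks). Fluorescence was read after 2.5 h at 37 °C, where cleavage lets the quencher strand anneal.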

[2] = Plasma stability assay; assay type: in vitro ADME; conditions: 2 μM, 50% mouse plasma in PBS, 2 h
Protocol: The stability of the compound in mouse plasma was assessed following a reported protocol.^50 BRD7586 (2 μM) was incubated with 50% mouse plasma (K2 EDTA, BioIVT) in PBS for 2 h in duplicate. Propantheline was included as a control.

[3] = target: T1, SpCas9; experiment: Target engagement in live cells (photo-crosslinking, pull-down); assay type: cell-based; conditions: HEK293T, 20 μM probe, 20 μM competitor
Protocol: HEK293T cells were plated in a 6-well plate (400,000 cells/well). The next day, cells were transfected with […] of Cas9 expression plasmid (pX330, Addgene #42230)^51 using Lipofectamine 3000 (Invitrogen). Eight hours after transfection, cells were split into 4 wells of a 12-well plate. Total 24 h after transfection, cells were treated with DMSO, Diazirine-BRD7586 (20 μM), or Diazirine-BRD7586 with BRD7586 (both at 20 μM) for 2 h. Cells were washed with PBS once, and 500 μL of fresh PBS was added to each well. The plate was placed on ice, and cells were irradiated with UV (365 nm) for 15 min. After the removal of PBS, cells were stored at−80° C. until further analysis. Thawed cells were suspended in a lysis buffer (25 mM HEPES, 50 mM KCl, 1% Triton X-100, 1× protease inhibitor cocktail, pH 7.4, 200 μL per well), and a brief sonication was performed to ensure cell lysis. Next, click chemistry was performed with 100 μM of biotin-azide, 350 μM of Cu-TBTA, and 1.5 mM of ascorbate. The reaction was proceeded for 2 h at room temperature with mild rotation, then proteins were precipitated by the addition of cold methanol (5-fold volume of the reaction mixture) to the mixture and keeping at −80° C. for >2 h. Protein pellet was obtained by centrifugation for 10 min at 16,000 g and 4° C. […]

T1 sequence (Q99ZW2 whole entry): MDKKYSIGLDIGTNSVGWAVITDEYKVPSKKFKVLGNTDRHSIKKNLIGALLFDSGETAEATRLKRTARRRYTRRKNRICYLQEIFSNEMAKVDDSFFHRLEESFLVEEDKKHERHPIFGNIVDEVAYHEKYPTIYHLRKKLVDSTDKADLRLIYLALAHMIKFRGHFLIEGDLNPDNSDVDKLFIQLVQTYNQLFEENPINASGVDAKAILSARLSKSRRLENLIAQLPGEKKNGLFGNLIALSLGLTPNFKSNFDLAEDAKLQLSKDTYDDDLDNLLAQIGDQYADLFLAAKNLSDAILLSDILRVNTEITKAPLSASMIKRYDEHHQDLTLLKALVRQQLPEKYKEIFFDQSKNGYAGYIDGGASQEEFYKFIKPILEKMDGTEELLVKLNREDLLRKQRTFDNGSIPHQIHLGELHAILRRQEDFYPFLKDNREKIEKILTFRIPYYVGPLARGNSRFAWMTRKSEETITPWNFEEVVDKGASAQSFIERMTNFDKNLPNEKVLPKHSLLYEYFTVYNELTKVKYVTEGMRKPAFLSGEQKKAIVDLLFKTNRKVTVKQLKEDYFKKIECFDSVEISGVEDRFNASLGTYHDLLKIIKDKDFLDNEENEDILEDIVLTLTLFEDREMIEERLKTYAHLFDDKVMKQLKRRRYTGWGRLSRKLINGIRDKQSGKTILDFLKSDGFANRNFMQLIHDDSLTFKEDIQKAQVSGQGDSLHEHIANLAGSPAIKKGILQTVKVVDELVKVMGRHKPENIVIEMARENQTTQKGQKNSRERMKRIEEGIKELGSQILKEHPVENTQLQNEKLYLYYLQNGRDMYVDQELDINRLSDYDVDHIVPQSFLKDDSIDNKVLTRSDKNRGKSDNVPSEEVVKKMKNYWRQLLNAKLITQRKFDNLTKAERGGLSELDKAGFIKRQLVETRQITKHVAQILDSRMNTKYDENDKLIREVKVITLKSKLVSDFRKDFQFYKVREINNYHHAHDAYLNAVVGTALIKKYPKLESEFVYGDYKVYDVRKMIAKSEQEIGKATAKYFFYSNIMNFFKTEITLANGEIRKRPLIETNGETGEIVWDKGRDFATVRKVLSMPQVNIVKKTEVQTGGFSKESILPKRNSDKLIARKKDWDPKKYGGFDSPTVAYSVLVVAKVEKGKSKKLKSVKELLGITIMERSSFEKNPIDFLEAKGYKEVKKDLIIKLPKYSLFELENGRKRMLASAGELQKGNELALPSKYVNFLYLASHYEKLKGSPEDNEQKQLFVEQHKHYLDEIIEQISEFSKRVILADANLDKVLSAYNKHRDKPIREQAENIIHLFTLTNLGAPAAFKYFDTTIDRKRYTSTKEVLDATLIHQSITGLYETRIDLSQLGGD

O=C(CCS(=O)(=O)c1ccc(Cl)cc1)Nc1nc(-c2ccncc2)cs1 [BRD7586]
Inhibition of SpCas9 in CAA [1]: dose-dependent inhibition | Stability in mouse plasma [2]: 40% | Target engagement in live cells [3]: demonstrating target engagement in live cells
